Reference: publication doi:10.1101/2020.06.18.159418v1 (biorxiv, 2020)

Tests used:
Assay type in all cases: binding
HuPrP23-231 = molecular target: T1, HuPrP23-231 (Homo sapiens, UniProt P04156); conditions: 0.3-1 mM compound, 20 mM HEPES pH 7.4, 150 mM NaCl, 3% DMSO, 298 K
T1 construct: gene PRNP

HuPrP90-231 [1] = molecular target: T2, HuPrP90-231 (Homo sapiens, UniProt P04156); assay: biochemical
T2 construct: gene PRNP

HuPrP90-231 [2] = molecular target: T2, HuPrP90-231

For `Cc1nc2cc(Cl)c(Cl)cc2[nH]1` [compound 1, 5,6-dichloro-2-methyl-1H-benzimidazole], the “1H-15N TROSY NMR chemical shift perturbation” value (HuPrP23-231) was “we observed similar resonance shifts in the full-length protein HuPrP23-231”, the Kd (HuPrP90-231 [1]) was over 1000 µM and the “decrease in melting temperature” value (HuPrP90-231 [2]) was ~ 0.2 °C.
